From patent publication US20240239801A1, “PYRIMIDO[5,4,D]PYRIMIDINE COMPOUNDS, COMPOSITIONS COMPRISING THEM AND USES THEREOF” (Université de Montréal, priority 2021, published 2024)
Read-outs that look alike come from different tables or passages of the source.

Tests used:
SW480 pERK = test: Phospho-ERK inhibition, AlphaLISA SureFire Ultra p-ERK 1/2; assay type: cell-based, human; conditions: for IC50: 1 h treatment, read-out: SW480 PERK IC50; for SW480 (Ymin %): lowest value of the pERK IC50 curve
Description: (§1) All cancer cell lines (A375, A101D, A2058, RKO, HT29 SK-MEL 30, IPC298, HepG2, HCT-116, Lovo, SW620, SW480, NCI-H358, NCI-H2122, Calu-6, NCIH2087, NCIH1755, NCIH1666 and Mewo) were obtained from ATCC and cultured in RPMI-1640 medium (Gibco) supplemented with 5% heat inactivated fetal bovine serum (FBS, Wisent) at 37° C. under 5% CO2. Cells were maintained in T175 flasks (Greiner). They were passaged by removing the culture medium, washing once in 10 mL of room temperature Phosphate Buffered Saline (PBS; Wisent) and incubating at 37° C. with 2 mL of 0.05% Trypsin (Thermo-Fisher). Trypsin was then inactivated by adding complete growth medium and the cells were then replated in a T175 culture dish at the appropriate dilution. All cell lines were routinely tested for mycoplasma contamination. Tissue type and mutational status of each cell line can be found in Table B.
(§2) AlphaLISA® SureFire® Ultra™ p-ERK ½ (Thr202/Tyr204) analysis was conducted on cells plated in 100 μL of complete RPMI-1640 growth medium in 96-well flat-bottomed transparent dishes (Costar) at a density indicated in Table C. Cells were maintained overnight at 37° C. under 5% CO2 before treatment with compounds' dilution series for one hour. The cell density in cells/cm^2 corresponds to cell number divided by the area of one well of a 96-well plate ([…]).
(§3) In a dilution series 100 μL/well of test substance dilution prepared in complete RPMI-1640 growth media was added to the cells. The dilution series is selected so that ten concentrations cover a range from 30 μM or 10 μM to 0.33 nM. If necessary, the initial concentration of 10 μM is increased to 100 μM or lowered to 1 μM (as in the case of A375 and NCIH1666 cells, which are generally more sensitive to the compounds) and further dilution is carried out accordingly. The final concentration of DMSO in the assay is set at 0.5%.
(§4) After treatment, media was removed, and cells were lysed in 50 μL of 1× AlphaScreen Ultra Lysis Buffer (Perkin Elmer). The AlphaLISA® SureFire® Ultra™ p-ERK ½ (Thr202/Tyr2O4) (PerkinElmer) reactions were performed with 5 μL of cell lysate according to the manufacturer's specifications in 384-well proxyplates (Perkin Elmer) followed by overnight incubation of the reactions at room temperature in a humidified chamber. After completion of the reactions, the signals were recorded on an EnVision plate reader (Perkin Elmer) using built in AlphaLISA® settings.
(§5) The effect of each compound dilution on the pERK signal was expressed in % inhibition and calculated as follows. An internal 100% inhibition control (1 μM trametinib, cat. No. HY-10999; MedChem Express; CAS No. 871700-17-3) was included in each plate and used as a measure of pERK background. First, the value obtained for trametinib was subtracted from each data point. The average of DMSO (vehicle) controls (set as 0% inhibition) was established and used to calculate % inhibition:
(§6) The ability of each compound to inhibit pERK signal was expressed as an IC50 value obtained by plotting the inhibition values for each data point of a dilution series and fitting the obtained curves using a log(agonist) versus response−variable slope (four parameters) function using GraphPadPrism (V7.0).
(§7) When present, paradoxical pERK induction is inferred from the negative % inhibition values observed in the pERK IC50 curves of a compound.

HCT116 pERK = test: as above; assay type: cell-based, human; conditions: for IC50: 1 h treatment; for HCT116 (Ymin %): lowest value of the pERK IC50 curve
Description: as §1, §2, §3, §4, §5, §6, §7

Row | Structure (SMILES) | IC50 (SW480 pERK; Table 3) [µM] | SW480 (Ymin %) (SW480 pERK; Table 3) [%] | IC50 (HCT116 pERK; Table 3) [µM] | HCT116 (Ymin %) (HCT116 pERK; Table 3) [%] | IC50 (SW480 pERK; Table 4) [µM] | SW480 (Ymin %) (SW480 pERK; Table 4) [%] | IC50 (HCT116 pERK; Table 4) [µM] | HCT116 (Ymin %) (HCT116 pERK; Table 4) [%]
1 | COc1ccc(S(=O)(=O)Nc2ccc(F)c(Nc3ncnc4cnc(N5CCC5)nc34)c2F)cc1 [Example 43] | 10 to 30 | 0 | 10 to 30 | 11 | – | – | – | –
2 | COc1ccc(S(=O)(=O)Nc2ccc(F)c(Nc3ncnc4cnc(N5CC[C@H](F)C5)nc34)c2F)c(F)c1 [Example 44] | 1 to 10 | 12 | 1 to 10 | −2 | – | – | – | –
3 | COc1ccc(S(=O)(=O)Nc2ccc(F)c(Nc3ncnc4cnc(-n5cnc6ccccc65)nc34)c2F)c(F)c1 [Example 45] | 1 to 10 | −8 | 1 to 10 | 11 | – | – | – | –
4 | COc1ccc(S(=O)(=O)Nc2ccc(F)c(Nc3ncnc4cnc(OC)nc34)c2F)cc1 [Example 46] | 10 to 30 | 12 | 10 to 30 | 8 | – | – | – | –
5 | COc1ccc(S(=O)(=O)Nc2ccc(F)c(Nc3ncnc4cnc(N5CC(F)C5)nc34)c2F)cc1 [Example 47] | 1 to 10 | −1 | 1 to 10 | 6 | – | – | – | –
6 | COc1ccc(S(=O)(=O)Nc2ccc(F)c(Nc3ncnc4cnc(N5CC(F)(F)C5)nc34)c2F)cc1 [Example 48] | 1 to 10 | 6 | 1 to 10 | 13 | – | – | – | –
7 | COc1ccc(S(=O)(=O)Nc2ccc(F)c(Nc3ncnc4cnc(Oc5cccc(C#N)c5)nc34)c2F)cc1 [Example 49] | 10 to 30 | −9 | 10 to 30 | 8 | – | – | – | –
8 | COc1ccc(S(=O)(=O)Nc2ccc(F)c(Nc3ncnc4cnc(N5CC(F)(F)C5)nc34)c2F)c(F)c1 [Example 50] | 1 to 10 | −9 | 1 to 10 | 8 | – | – | – | –
9 | COc1ccc(S(=O)(=O)Nc2ccc(F)c(Nc3ncnc4cnc(N5CC(F)C5)nc34)c2F)c(F)c1 [Example 52] | 1 to 10 | −8 | 1 to 10 | −4 | – | – | – | –
10 | COc1ccc(S(=O)(=O)Nc2ccc(F)c(Nc3ncnc4cnc(-n5cnc(C)c5C)nc34)c2F)c(F)c1 [Example 53] | 1 to 10 | −4 | 1 to 10 | 15 | – | – | – | –
11 | COc1ccc(S(=O)(=O)Nc2ccc(F)c(Nc3ncnc4cnc(Oc5cccc(N)c5)nc34)c2F)cc1 [Example 54] | 10 to 30 | 8 | 10 to 30 | −7 | – | – | – | –
12 | COc1ccc(S(=O)(=O)Nc2ccc(F)c(Nc3ncnc4cnc(-n5cnc6ccccc65)nc34)c2F)c(C)c1 [Example 55] | 1 to 10 | −2 | 1 to 10 | −4 | – | – | – | –
13 | COc1ccc(S(=O)(=O)Nc2ccc(F)c(Nc3ncnc4cnc(-n5cnc(C)c5C)nc34)c2F)c(C)c1 [Example 56] | 1 to 10 | 4 | 1 to 10 | −10 | – | – | – | –
14 | CO[C@@H]1CCN(S(=O)(=O)Nc2ccc(F)c(Nc3ncnc4cnc(-n5cnc6ccccc65)nc34)c2F)C1 [Example 59] | 0.5 to 1 | 2 | 0.5 to 1 | 11 | – | – | – | –
15 | CO[C@@H]1CCN(S(=O)(=O)Nc2ccc(F)c(Nc3ncnc4cnc(N5CC[C@H](F)C5)nc34)c2F)C1 [Example 60] | 1 to 10 | 15 | 1 to 10 | 9 | – | – | – | –
16 | O=S(=O)(Nc1ccc(F)c(Nc2ncnc3cnc(N4CC[C@H](F)C4)nc23)c1F)c1ccc(Cl)cc1Cl [Example 61] | 1 to 10 | 9 | 1 to 10 | 11 | – | – | – | –
17 | O=S(=O)(Nc1ccc(F)c(Nc2ncnc3cnc(-n4cnc5ccccc54)nc23)c1F)c1ccc2c(c1)CCO2 [Example 64] | 1 to 10 | 19 | 1 to 10 | 2 | – | – | – | –

Row | Structure (SMILES) | IC50 (SW480 pERK; Table 3) [µM] | SW480 (Ymin %) (SW480 pERK; Table 3) [%] | IC50 (HCT116 pERK; Table 3) [µM] | HCT116 (Ymin %) (HCT116 pERK; Table 3) [%] | IC50 (SW480 pERK; Table 4) [µM] | SW480 (Ymin %) (SW480 pERK; Table 4) [%] | IC50 (HCT116 pERK; Table 4) [µM] | HCT116 (Ymin %) (HCT116 pERK; Table 4) [%]
18 | Cc1ncn(-c2ncc3ncnc(Nc4c(F)ccc(NS(=O)(=O)c5ccc6c(c5)CCO6)c4F)c3n2)c1C [Example 65] | 1 to 10 | 5 | 1 to 10 | 4 | – | – | – | –
19 | O=S(=O)(Nc1ccc(F)c(Nc2ncnc3cnc(N4CC[C@H](F)C4)nc23)c1F)c1ccc2c(c1)CCO2 [Example 66] | 1 to 10 | 0 | 10 to 30 | 10 | – | – | – | –
20 | CO[C@@H]1CCN(S(=O)(=O)Nc2ccc(F)c(Nc3ncnc4cnc(N5Cc6ccccc6C5)nc34)c2F)C1 [Example 67] | 1 to 10 | 18 | 1 to 10 | 6 | – | – | – | –
21 | CO[C@@H]1CCN(S(=O)(=O)Nc2ccc(F)c(Nc3ncnc4cnc(-n5ccc6ccccc65)nc34)c2F)C1 [Example 68] | 1 to 10 | 0 | 1 to 10 | 17 | – | – | – | –
22 | COCC1CCN(S(=O)(=O)Nc2ccc(F)c(Nc3ncnc4cnc(-n5cnc6ccccc65)nc34)c2F)C1 (stereo not drawn) [Example 70] | 1 to 10 | 1 | 1 to 10 | 0 | – | – | – | –
23 | CO[C@@H]1CCN(S(=O)(=O)Nc2ccc(F)c(Nc3ncnc4cnc(-n5ccc6cccnc65)nc34)c2F)C1 [Example 71] | 1 to 10 | −4 | 1 to 10 | 8 | – | – | – | –
24 | CO[C@@H]1CCN(S(=O)(=O)Nc2ccc(F)c(Nc3ncnc4cnc(-n5nnc6ccccc65)nc34)c2F)C1 [Example 72] | 1 to 10 | 1 | 1 to 10 | 20 | – | – | – | –
25 | CC1CCN(S(=O)(=O)Nc2ccc(F)c(Nc3ncnc4cnc(-n5cnc6ccccc65)nc34)c2F)C1 (stereo not drawn) [Example 73] | 1 to 10 | 7 | 1 to 10 | −2 | – | – | – | –
26 | O=S(=O)(Nc1ccc(F)c(Nc2ncnc3cnc(-n4cnc5ccccc54)nc23)c1F)N1CC2CC2C1 (stereo not drawn) [Example 74] | 1 to 10 | −7 | 1 to 10 | −3 | – | – | – | –
27 | O=S(=O)(Nc1ccc(F)c(Nc2ncnc3cnc(-n4cnc5ccccc54)nc23)c1F)N1CCC(CCl)C1 (stereo not drawn) [Example 75] | 1 to 10 | −6 | 1 to 10 | −10 | – | – | – | –
28 | CCC1CCN(S(=O)(=O)Nc2ccc(F)c(Nc3ncnc4cnc(-n5cnc6ccccc65)nc34)c2F)C1 (stereo not drawn) [Example 76] | 1 to 10 | −9 | 1 to 10 | −1 | – | – | – | –
29 | O=S(=O)(Nc1ccc(F)c(Nc2ncnc3cnc(-n4cnc5ccccc54)nc23)c1F)N1CCCC1 [Example 77] | 1 to 10 | −4 | 1 to 10 | −4 | – | – | – | –
30 | O=S(=O)(Nc1ccc(F)c(Nc2ncnc3cnc(-n4cnc5ccccc54)nc23)c1F)N1CCC(OC(F)F)C1 (stereo not drawn) [Example 78] | 0.5 to 1 | 10 | 1 to 10 | 6 | – | – | – | –
31 | COc1ccc(S(=O)(=O)Nc2ccc(F)c(Nc3ncnc4cnc(-n5cnc6c(N)cccc65)nc34)c2F)c(F)c1 [Example 79] | < 0.5 | −2 | 0.5 to 1 | −6 | – | – | – | –
32 | COc1ccc(S(=O)(=O)Nc2ccc(F)c(Nc3ncnc4c(N)nc(-n5cnc(C)c5C)nc34)c2F)cc1 [Example 85] | – | – | – | – | 1 to 10 | 4 | 10 to 30 | 8
33 | COc1ccc(S(=O)(=O)Nc2ccc(F)c(Nc3ncnc4c(N)nc(-n5cnc(C)c5C)nc34)c2F)c(C)c1 [Example 86] | – | – | – | – | 1 to 10 | 3 | 1 to 10 | 8
